Data from patent publication US6057314A, “Low molecular weight bicyclic thrombin inhibitors” (Biochem Pharma Inc., priority 1997, dated 2000).
Where two headings read alike, the source gives them in different places.

Legend:
[1] = target: T1, human thrombin (Homo sapiens, UniProt P00734); assay: Inhibition of amidolytic activity of human thrombin (Ki, fluorogenic substrate Tos-Gly-Pro-Arg-AMC); type: biochemical
Experimental: In an assay to determine the inhibitory dissociation constant, Ki, for a given compound, a chromogenic or fluorogenic substrate of thrombin would be added to a solution containing a test compound and thrombin; the resulting catalytic activity of the enzyme would be spectrophotometrically determined. This type of assay is well known to those skilled in the art.
Determination of K1 Values for Heterocyclics
The steady-state velocity was then measured for a few minutes. The compounds of this invention were also pre-incubated with thrombin for 20 minutes at room temperature before adding the substrate.

[2] = target: T1, human thrombin; assay: dTT assay (fibrin clotting assay, human thrombin and bovine fibrinogen); type: biochemical; details: concentration required to double the clotting time
Description: The clotting time was plotted against the inhibitor concentrations and the IC50 was estimated as the inhibitor concentration required to double the clotting time relative to the control.

[3] = test system: washed platelets from rats; assay: Platelet aggregation (washed rat platelets, thrombin stimulated); type: cell-based; details: Table 1, suspension of washed platelets from rats, human thrombin 0.1 IU/mL, read-out: Antiplatelet activity, Aggregation (IC50)
Experimental: (§1) Platelet Aggregation and Secretion Rat blood was collected into ACD (6/1 v/v) by cardiac puncture. Suspensions of washed platelets were prepared as described by […] et al, (Br. J. Haematol. 1970, 19:7 and Proc. Soc. Exp. Biol. Med. 1971, 136:1021). […] Platelet counts were adjusted to 5000,000/ μL. Platelet aggregation was recorded at 37° C. in an aggregometer (BioData PAP-4) at a stirring speed of 1,100 rpm by measuring the variations of light transmission. […] IC50 values represent the concentration that was necessary to inhibit platelet aggregation or secretion to 50% of the control.

[4] = test system: washed platelets from rats; assay: Platelet secretion (14C-serotonin, 5-HT, release from washed rat platelets, thrombin stimulated); type: cell-based; details: Table 1, human thrombin 0.1 IU/mL, read-out: Antiplatelet activity, 5-HT Secretion (IC50)
Experimental: as §1, with “μL. To permit measurement of the extent of release of the contents of the dense granules, the platelets were labelled in the first washing solution with ^14 C-serotonin (5-HT) (1 μCi/10 mL of washing fluid) and release of ^14 C-serotonin was determined as described in Holmsen et al, (Enzymology, 1989, 169:206). […] (5 μM final conc.) was added to present the reuptake of released serotonin.” for “μL.”

[5] = target: T1, human thrombin; assay: Fibrin clot assay (human plasma, turbidity); type: biochemical; details: Table 1, 1 nM thrombin, at 30 minutes
Experimental: The fibrin clot assay was performed essentially as described by Krtenansky et al, FEBS, 1987, 211:10. A serial dilution of the inhibitor was prepared in 50 mM tri HCl buffer (pH 7.8 at 23° C.) containing 0.1 M NaCl and 0.1% (w/v) polyethylene glycol 8000. Human plasma (60 μL, collected in 3.8% sodium citrate, blood/anticoagulate 9:1) was added to microtiter wells (microtiter plate, Falcon) containing 100 μL of various inhibitor dilutions. The solution was mixed after which 50 μL of human thrombin (1 nM final conc.) was added and mixed for 15 seconds. The turbidity of the clot was immediately monitored by microplate autoreader (Dynateck MR 5000) at 405 nm and recorded every 3 min. The maximal turbidity in the absence of inhibitors was reached within 60 min. IC50 values were calculated at 30 minutes as the inhibitor concentration that gave half the optical density of the control.

[6] = test system: carotid artery in rats; assay: FeCl3 induced carotid arterial injury model (arterial thrombosis) in rats, time to occlusion; type: in vivo, rat (Sprague-Dawley); details: Table 2
Experimental: Arterial Thrombosis Model
FeCl3 Induced Carotid Arterial Injury Model
Animals were laid on a 37° C. heating pad. The carotid artery was exposed through a midline cervical incision. Careful blunt dissection was used to isolate the vessel from the carotid sheath. […] A temperature probe (Physitemp*MT23/3) was placed between one of the pieces of tubing and the artery. Injury was induced by topical application on the carotid artery above the temperature probe of a small disc (3 mm dia.) of Whatman* No. 1 filter paper previously dipped in a 35% solution of FeCl3 […]. The vessel temperature was monitored for 60 minutes after application of FeCl3 as an indication of blood flow.
The time between the FeCl3 application and the time at which the vessel temperature decreased abruptly (>2.4° C.) was recorded as the time to occlusion of the vessel. Inhibitor compounds were given as an iv bolus (mg/kg) followed immediately by an iv infusion (μg/kg/min. via femoral vein). The dose of inhibitor needed to double the time to occlusion in comparison to control animals in which injury was induced in the absence of inhibitor was determined.

[7] = Table 1, read-out: Ki (inhibitory dissociation constant for human thrombin)

SMILES	Ki [1, 7]	IC50 ([2]; Table 1, read-out: dTT IC50)	IC50 [3]	IC50 [4]	IC50 [5]	Ki ([1]; Table 2, read-out: Ki)	IC50 ([2]; Table 2, read-out: dTT)	M.O.T (min)+/-sem ([6]; ivb + inf 0.5-30 (iv bolus mg/kg, infusion μg/kg/min))	M.O.T (min)+/-sem ([6]; ivb + inf 0.75-50 (iv bolus mg/kg, infusion μg/kg/min))
N=C(N)NCCCC(NC(=O)[C@@H]1CC[C@H]2CN(C(=O)c3ccccc3)CC(=O)N21)C(=O)c1nccs1 (stereo partly shown) [Compound 0335, 2-Benzoyl-4-oxo-octahydro-pyrrolo[1,2-a]pyrazine-6-carboxylic acid[4-guanidino-1-(thiazole-2-carbonyl)-butyl]-amide]	–	–	–	–	–	0.025 µM	0.138 µM	41.5 ± 7.27 min	45.8 ± 14.2 min
N=C(N)NCCC[C@H](NC(=O)[C@@H]1CSC2CC[C@@H](CC3CCCCC3)C(=O)N21)C(=O)N1CCCC(C(N)=O)C1 (stereo partly drawn) [Compound 0040, 6S-cyclohexylmethylhexahydro-5-oxo-5H-thiazolo[3,2-a]pyridine-3R-carboxamido((S)-Argnipecotamide)]	19 µM	207 µM	> 100 µM	> 100 µM	> 450 µM	–	–	–	–
COC(=O)CCC1(C(CCCNC(=N)N)NC(=O)[C@@H]2CSC3CC[C@@H](CC4CCCCC4)C(=O)N32)SCCS1 (stereo partly drawn) [Compound 0025, 6S-cyclohexyl methyl hexahydro-5-oxo-5H-thiazolo[3,2-a]pyridine-3R-carboxamido(carbmethoxypropylcyclodithioketalarginine)]	53 µM	> 625 µM	> 100 µM	> 100 µM	> 450 µM	–	–	–	–
N=C(N)NCCCC(NC(=O)[C@@H]1CSC2CC[C@@H](Cc3ccccc3)C(=O)N21)C1(CCC(N)=O)SCCS1 (stereo partly drawn) [Compound 0035, 6S-benzylhexahydro-5-oxo-5H-thiazolo[3,2-a]pyridine-3R-carboxamido(carboxamidopropylcyclodithioketalarginine)]	34 µM	319 µM	> 100 µM	> 100 µM	> 450 µM	–	–	–	–
N=C(N)NCCCC(NC(=O)[C@@H]1CSC2CC[C@@H](CC3CCCCC3)C(=O)N21)C(=O)CSCC(=O)O (stereo partly drawn) [Compound 0065, 6S-cyclohexylmethylhexahydro-5-oxo-5H-thiazolo[3,2-a]pyridine-3R-carboxamido(1-carboxy-3-thiobutylketoarginine)]	32.7 µM	42 µM	47.5 µM	52 µM	200 µM	–	–	–	–
N=C(N)NCCC[C@H](NC(=O)[C@@H]1CSC2CC[C@@H](CC3CCCCC3)C(=O)N21)C(=O)N1CCC(C(N)=O)CC1 (stereo partly drawn) [Compound 0045, 6S-cyclohexylmethylhexahydro-5-oxo-5H-thiazolo[3,2-a]pyridine-3R-carboxamido((S)Argisonipecotamide)]	74 µM	415 µM	–	–	> 450 µM	–	–	–	–
N=C(N)NCCCC(NC(=O)[C@@H]1CSC2CC[C@@H](Cc3ccccc3)C(=O)N21)C1(CCCCC(N)=O)SCCS1 (stereo partly drawn) [Compound 0050, 6S-benzylhexahydro-5-oxo-5H-thiazolo[3,2-a]pyridine-3R-carboxamido(carboxamidopentylcyclodithioketalarginine)]	62 µM	–	–	–	> 450 µM	–	–	–	–

More lines, in order of falling Ki [1, 7], values ahead:

Ki [1, 7]	IC50 ([2]; Table 1, read-out: dTT IC50)	IC50 [3]	IC50 [4]	IC50 [5]	SMILES	Ki ([1]; Table 2, read-out: Ki)	IC50 ([2]; Table 2, read-out: dTT)	M.O.T (min)+/-sem ([6]; ivb + inf 0.5-30 (iv bolus mg/kg, infusion μg/kg/min))	M.O.T (min)+/-sem ([6]; ivb + inf 0.75-50 (iv bolus mg/kg, infusion μg/kg/min))
16 µM	162 µM	> 100 µM	> 100 µM	> 450 µM	COC(=O)CCC(=O)C(CCCNC(=N)N)NC(=O)[C@@H]1CSC2CC[C@@H](Cc3ccccc3)C(=O)N21 (stereo partly drawn) [Compound 0015, 6S-benzylhexahydro-5-oxo-5H-thiazolo[3,2-a]pyridine-3R-carboxamido(propylcarbmethoxyketoarginine)]	–	–	–	–
8.6 µM	67 µM	> 100 µM	> 100 µM	320 µM	N=C(N)NCCC[C@H](NC(=O)[C@@H]1CSC2CC[C@@H](CC3CCCCC3)C(=O)N21)C(=O)N1CCCC[C@@H]1C(=O)O (stereo partly drawn) [Compound 0030, 6S-cyclohexylmethyl hexahydro-5-oxo-5H-thiazolo[3,2-a]pyridine-3R-carboxamido((S)-Arg-(R)-pipecolilic acid)]	–	–	–	–
4.6 µM	89.5 µM	21 µM	19 µM	> 450 µM	CCCCC(=O)C(CCCNC(=N)N)NC(=O)[C@@H]1CSC2CC[C@@H](Cc3ccccc3)C(=O)N21 (stereo partly drawn) [Compound 0010, 6S-benzylhexahydro-5-oxo-5H-thiazolo[3,2-a]pyridine-3R-carboxamido (butyl ketoarginine)]	–	–	–	–
4.4 µM	25 µM	22 µM	2.1 µM	78 µM	CC(SCC(=O)C(CCCNC(=N)N)NC(=O)[C@@H]1CSC2CC[C@@H](CC3CCCCC3)C(=O)N21)C(=O)O (stereo partly drawn) [Compound 0070, 6S-cyclohexylmethylhexahydro-5-oxo-5H-thiazolo[3,2-a]pyridine-3R-carboxamido(1-carboxy-2-methyl-3-thiobutylketoarginine)]	–	–	–	–
4 µM	47 µM	–	–	> 450 µM	CCCC(=O)C(CCCNC(=N)N)NC(=O)[C@@H]1CSC2CC[C@@H](Cc3ccccc3)C(=O)N21 (stereo partly drawn) [Compound 0005, 6S-benzylhexahydro-5-oxo-5H-thiazolo[3,2-a]pyridine-3R-carboxamido (propyl ketoarginine)]	–	–	–	–
2.2 µM	22 µM	18 µM	14.2 µM	> 450 µM	N=C(N)NCCCC(NC(=O)[C@@H]1CSC2CC[C@@H](CC3CCCCC3)C(=O)N21)C(=O)Cc1ccccc1 (stereo partly drawn) [Compound 0020, 6S-cyclohexymethyl hexahydro-5-oxo-5H-thiazolo[3,2-a]pyridine-3R-carboxamido(benzylketoarginine)]	–	–	–	–
0.048 µM	0.375 µM	0.4 µM	0.38 µM	–	N=C(N)NCCCC(NC(=O)[C@@H]1CSC2CC[C@@H](CC3CCCCC3)C(=O)N21)C(=O)C[n+]1ccc2ccccc2c1 (stereo partly drawn) [Compound 0080, 6S-cyclohexylmethylhexahydro-5-oxo-5H-thiazolo[3,2-a]pyridine-3R-carboxamido(iso-quinoliniummethylketoarginine)]	–	–	–	–
